Data on 1 molecule can be found in ChEMBL document CHEMBL5338711, “Designing and development of phthalimides as potent anti-tubulin hybrid molecules against malaria” (Eur J Med Chem, 2022).

pIC50, pKd: −log10 of the molar value. Activity calls are given as the source filed them. No cut-off for these calls is given here.

One may read the pIC50 as the IC50 on a negative log10 scale, so that one unit is a factor of ten. A word on the inhibition: it is how much of the control response was suppressed. Broadly, the pKd is −log10 of the Kd, conventionally taken in molar units.

A short description of data set [1]: Cytotoxicity against human HepG2 cells. Format: toxicity, cell-based.
Data set [2] has as its system Plasmodium falciparum. The data set is described as follows: Antimalarial activity against […] infected in human RBC assessed as inhibition of plasmodial growth at 1 uM by SYBR green dye based spectrofluorometric analysis relative to control. The note with it: 3D7, Erythrocyte. Format: functional.
The subject of data set [3] is Plasmodium falciparum. The data set is described as follows: Antimalarial activity against […] infected in human RBC assessed as inhibition of plasmodial growth at 10 uM by SYBR green dye based spectrofluorometric analysis relative to control. The following applies: 3D7, Erythrocyte. Format: functional.
Data set [4] deals with Plasmodium falciparum. The data set is described as follows: Antimalarial activity against chloroquine-sensitive synchronized late stage trophozoite Plasmodium falciparum 3D7 infected in human RBC assessed as inhibition of plasmodial growth by giemsa staining based analysis. Format: functional, organism-based. The note with it: 3D7, Erythrocyte.
In data set [5] the test system is Plasmodium falciparum. Nature of the data set: Antimalarial activity against chloroquine-resistant synchronized late stage trophozoite Plasmodium falciparum RKL-9 infected in human RBC assessed as inhibition of plasmodial growth by giemsa staining based analysis. The note with it: RKL-9, Erythrocyte. Format: functional, organism-based.
Data set [6] deals with Plasmodium falciparum. The data set is described as follows: Antimalarial activity against chloroquine-resistant Plasmodium falciparum RKL-9 infected in human RBC assessed as reduction of plasmodial growth by SYBR green dye based spectrofluorometric analysis. Format: functional, organism-based.
For another data set, the system named is Erythrocyte. The data set is described as follows: Hemolytic activity in human RBC assessed as hemolysis upto 5 uM incubated for 2 hrs. Format: toxicity, cell-based.
Data set [7] in a line: Therapeutic index, ratio of CC50 for human HepG2 cells to IC50 for chloroquine-sensitive synchronized late stage trophozoite Plasmodium falciparum 3D7 infected in human RBC. Format: toxicity. The following applies: read-out: TI.
Data set [8] in a line: Cytotoxicity against […] cell upto 500 uM. Format: toxicity, cell-based. The note with it: human.
Data set [9] has as its system Plasmodium falciparum. Nature of the data set: Antiplasmodial activity against synchronized ring stage Plasmodium falciparum 3D7 infected in human RBC assessed as defect in invasion stage by measuring merozoites sticking on the red blood cell surface at IC50 concentration measured after 60 hrs by giemsa staining based light microscopic analysis. Format: functional, organism-based.

In data set [10] the test system is Plasmodium falciparum. Nature of the data set: Induction of mitochondrial membrane depolarization in trophozoite stage Plasmodium falciparum 3D7 infected in human RBC assessed as increase in green fluorescence at IC50 concentration incubated for 3 hrs by JC-1 dye based fluorescence microscopic analysis. Format: functional, organism-based.
Data set [11] concerns Plasmodium falciparum. The data set is described as follows: Induction of mitochondrial membrane depolarization in trophozoite stage Plasmodium falciparum 3D7 infected in human RBC assessed as decrease in red to green fluorescence ratio at IC50 concentration incubated for 3 hrs by JC-1 dye based fluorescence microscopic analysis. Format: functional, organism-based.
Data set [12] deals with Plasmodium falciparum. The data set is described as follows: Induction of mitochondrial membrane depolarization in trophozoite stage Plasmodium falciparum 3D7 infected in human RBC assessed as red to green fluorescence ratio at IC50 concentration incubated for 3 hrs by JC-1 dye based spectrofluorometric analysis (reference value: 6.96+/-0.94). Format: functional.
Data set [13] concerns Plasmodium falciparum. Nature of the data set: Synergistic antimalarial activity against synchronized ring stage Plasmodium falciparum 3D7 infected in human RBC assessed as mean fractional inhibitory concentration at 2:3 ratio of ART to compound incubated for 72 hrs by giemsa staining based flow cytometric analysis. Format: functional. (Flow cytometry measures light scatter and fluorescence of single cells or particles in a stream.)

In data set [14] the test system is Plasmodium falciparum. Nature of the data set: Synergistic antimalarial activity against synchronized ring stage Plasmodium falciparum 3D7 infected in human RBC assessed as mean fractional inhibitory concentration at 1:4 ratio of ART to compound incubated for 72 hrs by giemsa staining based flow cytometric analysis. Format: functional.
A short description of data set [15]: Binding affinity to recombinant N-terminal 6His tagged Plasmodium falciparum alpha-1 tubulin expressed in Escherichia coli BL21 assessed as dissociation constant by SPR analysis.
In data set [16] the test system is Plasmodium falciparum. Nature of the data set: Binding affinity to recombinant N-terminal 6His tagged Plasmodium falciparum beta-tubulin expressed in Escherichia coli BL21 at 0.78 to 75 uM by SPR analysis. The following applies: dose 0.78-75 µM. On the technique in general: Surface plasmon resonance follows binding to a sensor surface in real time, without labels.

Data set [17] deals with Plasmodium falciparum. The data set is described as follows: Binding affinity to recombinant N-terminal 6His tagged Plasmodium falciparum alpha-1 tubulin expressed in Escherichia coli BL21 assessed as thermo-stabilization incubated at 4 to 80 degreeC for 3 mins followed by 5 mins incubation at room temperature by thermal shift assay. The following applies: time 8.0 min.

Data set [18] relates to Plasmodium berghei. The data set is described as follows: Antimalarial activity against Plasmodium berghei ANKA in BALB/c mouse injected with parasite infected erythrocytes assessed as decrease in parasite load at 30 mg/kg, ip administered daily for 7 days relative to control. Format: functional. Details: scale not given: the % may be the effect or the level left. The note with it: time 7 day.

Data set [19] concerns Plasmodium berghei. The data set is described as follows: Antimalarial activity against Plasmodium berghei ANKA in BALB/c mouse injected with parasite infected erythrocytes assessed as reduction in parasitemia at 30 mg/kg, ip administered daily for 7 days and measured after 15 days. The following applies: time 15.0 day. Format: functional, organism-based.
Data set [20] relates to Plasmodium berghei. Nature of the data set: Antimalarial activity against Plasmodium berghei ANKA in BALB/c mouse injected with parasite infected erythrocytes assessed as […] mean survival time at 30 mg/kg, ip administered daily for 7 days and measured after 15 days. Format: functional. The following applies: time 15 day.

As for `CCC(C)[C@H](c1nc2ccccc2n1Cc1cn(-c2ccc(C(F)(F)F)cc2)nn1)N1C(=O)c2ccccc2C1=O` (stereo partly specified), the pIC50 in data set [1] was less than 4.00; with Plasmodium falciparum [4], 6.19; in the data set with Plasmodium falciparum [5], 5.79. The inhibition at 1 µM in the data set on Plasmodium falciparum [2] amounted to 45%. The inhibition at 10 µM in the data set on Plasmodium falciparum [3] turned out to be 68%. The Activity result was “Dose dependent effect” in the data set on Plasmodium falciparum [6]; “Non-Toxic” in the data set with Erythrocyte; “Non-Toxic” in data set [8]; 4.61 in the data set with Plasmodium falciparum [12]; 2.1% with Plasmodium berghei [18]. Besides, the selectivity ratio in [7] is 156. Further, the result in the data set on Plasmodium falciparum [9], in the data set on Plasmodium falciparum [10], in the data set on Plasmodium falciparum [11], with Plasmodium falciparum [17] and in the data set on Plasmodium berghei [19] was Active. The FIC in the data set on Plasmodium falciparum [13] was found to be 0.86; with Plasmodium falciparum [14], 0.67. Moreover, the negative-log Kd (pKd) in data set [15] is 4.58. Besides, the result in the data set on Plasmodium falciparum [16] was inactive. In addition, the MST in the data set with Plasmodium berghei [20] amounted to 11.42 days.
